Reference: PubChem BioAssay AID2305 (GlaxoSmithKline (GSK), 2010)
Where “and” joins values, the source holds several entries; their conditions need not be identical. Equal values may be shown once.

Tested on: P. falciparum 3D7 growth, pLDH absorbance
Test: P. falciparum 3D7 growth inhibition, dose response, strain 3D7 (AID 2305)

Q: Which IC50 does the source give for `COc1cc(N(Cc2ccccc2C)S(=O)(=O)Cc2ccccc2[N+](=O)[O-])c(OC)cc1Cl` here?
A: 1010 nM

Q: `Cc1cc(NC2CCN(Cc3ccccc3)CC2)nc(NCCCCc2ccccc2)n1` was tested. Which IC50 did it give?
A: 380 nM

Q: Which IC50 does the source give for `Cc1cc(N(C)C)nc(Nc2ccc(NC(=O)c3ccc(Br)o3)cc2)n1` here?
A: 1050 nM

Q: For `c1ccc(-c2cc(NCCCCCCCCNc3cc(-c4ccccc4)nc4ccccc34)c3ccccc3n2)cc1`, which IC50 is on record?
A: 390 nM

Q: `c1ccc(-c2ccc3c(Nc4ccc5[nH]ncc5c4)ccnc3c2)nc1` was tested. Which IC50 did it give?
A: 820 nM

Q: For `CCCNC(=O)C1Cc2c([nH]c3cc(Br)ccc23)C2(CCN(CCc3ccccc3)CC2)N1` (configuration not stated), which IC50 is on record?
A: 970 nM

Q: With `CC1CCCC(NCc2c(O)ccc3ccccc23)C1` (configuration not stated) as the compound, how does the IC50 read?
A: 930 nM

Q: For `COc1ccc(C(=O)Nc2ccc3nc(N4CCCCC4)cc(C)c3c2)cc1OC`, which IC50 is on record?
A: 990 nM

Q: Which IC50 does the source give for `N/C(=N\c1ncccn1)Nc1cccc(Cc2ccccc2)n1` here?
A: 930 nM

Q: Which IC50 does the source give for `CC1CN=C(c2ccc(NC(=O)c3ccc(C(=O)Nc4ccc(C5=NCC(C)N5)cc4)cc3)cc2)N1` (configuration not stated) here?
A: 30 nM

Q: `Oc1cccc(C2CCCN(Cc3cccc4cc[nH]c34)C2)c1` (configuration not stated) was tested. Which IC50 did it give?
A: 510 nM

Q: With `COc1ccc(F)cc1-c1ccc(C(=O)N2CCCN(c3ccc(C#N)cn3)CC2)cc1` as the compound, how does the IC50 read?
A: 110 nM

Q: `Cc1ccc(NC(=O)Nc2ccc(I)c(OCCN(C)C)c2)cc1Cl` was tested. Which IC50 did it give?
A: 560 nM

Q: For `O=[N+]([O-])c1ccc(C2=NN(S(=O)(=O)c3c(Cl)cc(Cl)cc3Cl)CCCC2)cc1`, which IC50 is on record?
A: 130 nM

Q: How did the IC50 turn out when `Cc1cc(NCCC(=O)Nc2ccccc2)nc(NCCc2cccnc2)n1` was run?
A: 1240 nM

Q: Which IC50 does the source give for `CCCNC(=O)Nc1cc2cc(-c3ccc(CN4CCCC4)cc3)ccc2n2c(C)nnc12` here?
A: 1500 nM

Q: Which IC50 does the source give for `Cc1nc2nc(N)nc(N)c2c(C)c1Cc1ccccc1I` here?
A: 350 nM

Q: How did the IC50 turn out when `O=C(Nc1cccc(N2CCC(NCc3cccnc3)CC2)c1)c1cccc(C(F)(F)F)c1` was run?
A: 970 nM

Q: `Cc1cccc2[nH]c(-c3cccc(-c4ccc(NC(=O)CN5CCN(C)CC5)cc4)c3)nc12` was tested. Which IC50 did it give?
A: 560 nM

Q: `O=C(Nc1ccc2ccccc2c1)N(CCCn1ccnc1)Cc1csc(-c2ccc(CNCc3ccccc3)cc2)n1` was tested. Which IC50 did it give?
A: 740 nM

Q: Which IC50 does the source give for `Cc1ccc(NC(=O)c2ccc(NCCCN(C)Cc3ccccc3)c([N+](=O)[O-])c2)cc1F` here?
A: 700 nM

Q: How did the IC50 turn out when `COc1ccc(-c2ccc(NC(=O)c3cccc(C#N)c3)cc2)cc1CN(C)C` was run?
A: 730 nM

Q: With `O=C(N[C@@H](CC1CCCCC1)C(=O)NC1CCCc2ccccc21)c1ccc(O)c(-c2cccc([N+](=O)[O-])c2)c1` (some centres not stated) as the compound, how does the IC50 read?
A: 610 nM

Q: `C=CCc1cc(Cc2cnc(N)nc2N)cc(CCC)c1O` was tested. Which IC50 did it give?
A: 990 nM

Q: For `CCCNC(=O)c1cncc(-c2ccc(CNC(CC)c3ccccc3)cc2)c1` (configuration not stated), which IC50 is on record?
A: 880 nM

Q: Which IC50 does the source give for `CC(=O)Nc1ccc(OCCN(CC(C)C)c2ccc(C#N)c(C(F)(F)F)c2)c(Cl)c1` here?
A: 790 nM

Q: Which IC50 does the source give for `CC(=O)Nc1nc(C(=O)Nc2cccc(-c3cccc(-c4nc5ccccc5[nH]4)c3)c2)cs1` here?
A: 170 nM

Q: Which IC50 does the source give for `CC(C)Cn1cc(C2CCN(CCN3CCC(CNC(=O)c4ccc(NC(=O)c5ccc(Cl)cc5)cc4)CC3)CC2)c2ccccc21` here?
A: 250 nM

Q: Which IC50 does the source give for `COc1cccc(NC(=O)COc2ccc(C(=O)Nc3nc4ccccc4[nH]3)cc2)c1` here?
A: 970 nM

Q: For `N#Cc1cccc(NC(=O)Nc2ccc(-c3ccc(-c4nc5ccc(C(F)(F)F)cc5[nH]4)cc3)cc2)c1`, which IC50 is on record?
A: 140 nM

Q: `CN1CCN(c2cc3c(cc2Cl)CCN3C(=O)Nc2ccc(NC(=O)c3ccc(C(F)(F)F)cc3)cc2)CC1` was tested. Which IC50 did it give?
A: 510 nM

Q: `O=C(Nc1cccc(CN2CCCN(Cc3ccc4c(c3)OCO4)CC2)c1)c1ccc(Cl)c(Cl)c1` was tested. Which IC50 did it give?
A: 890 nM

Q: Which IC50 does the source give for `COc1ccc(NC(=O)Nc2cccc(-c3ccncc3)c2)cc1N1CCN(C)CC1` here?
A: 550 nM

Q: For `COc1ccc(C2C(C(=O)Nc3cc(OC)c(OC)c(OC)c3)c3cc(OC)c(OC)cc3C(=O)N2C)cc1` (configuration not stated), which IC50 is on record?
A: 800 nM

Q: For `CC1CN=C(Nc2ncc(Cl)cc2Cl)N1` (configuration not stated), which IC50 is on record?
A: 240 nM

Q: `Cc1cccc(-c2nc3[nH]c(=O)cc(NC(=O)C(C)C)n3n2)c1` was tested. Which IC50 did it give?
A: 420 nM

Q: `CS(=O)(=O)c1ccc(CCNCc2ccc(-c3ccc(CNC4Cc5ccccc5C4)cc3)nc2)cc1` was tested. Which IC50 did it give?
A: 760 nM

Q: Which IC50 does the source give for `Cc1[nH]c(C)c(-c2ccc(Oc3ccc(Cl)cc3)c(Cl)c2)c(=O)c1Br` here?
A: 490 nM

Q: Which IC50 does the source give for `CCOC(=O)c1sc(C(C)Nc2ccccc2)nc1-c1ccccc1` (configuration not stated) here?
A: 330 nM

Q: How did the IC50 turn out when `CCN(CC)CCN(CCCc1ccc(-c2ccc(C(F)(F)F)cc2)cc1)C(=O)Cn1c(CCc2cccc(F)c2F)nc(=O)c2c1CCC2` was run?
A: 830 nM

Q: Which IC50 does the source give for `O=C(Nc1ccc(OC2CCN(Cc3ccccc3)CC2)c(Cl)c1)c1cccs1` here?
A: 310 nM

Q: How did the IC50 turn out when `CN(c1cc(NC(=O)c2cccs2)ccn1)C1CCN(Cc2cccc(F)c2)CC1` was run?
A: 680 nM

Q: Which IC50 does the source give for `Cc1[nH]c(C)c(-c2ccc(Oc3ccc(Cl)cc3)cc2)c(=O)c1Br` here?
A: 590 nM

Q: Which IC50 does the source give for `CCc1nc2c(cnn2CC)c(NC2CCOCC2)c1CNC(=O)c1ccoc1C` here?
A: 890 nM

Q: How did the IC50 turn out when `COc1cc(Cc2cnc(N)nc2N)c2c(c1OC)OC(C)C=C2` (configuration not stated) was run?
A: 1250 nM

Q: For `COc1cccc2c1CCN(CCN1CCC(CNC(=O)c3ccc(-c4ccc(C#N)cc4)cc3)CC1)C2`, which IC50 is on record?
A: 760 nM

Q: Which IC50 does the source give for `CC1CCC(NCc2ccc3c(CNC4CCC(C)CC4)c(O)ccc3c2O)CC1` (configuration not stated) here?
A: 120 nM

Q: `COc1cc2nccc(Nc3ccc(OCc4ccccc4)cc3)c2cc1OC` was tested. Which IC50 did it give?
A: 200 nM

Q: For `COc1ccc(-c2cc(-c3nc4ccc(CN)cc4[nH]3)c(=O)n(C)c2)cc1OC`, which IC50 is on record?
A: 1400 nM

Q: Which IC50 does the source give for `Cc1cc(NCCCCCCN)nc(Nc2ccc(Cl)cc2)n1` here?
A: 450 nM

Q: `CC(Cc1ccc(SCCSc2ccccc2)cc1)NCC(O)c1cccc(Cl)c1` (configuration not stated) was tested. Which IC50 did it give?
A: 370 nM

Q: `O=C(/C=C/c1ccc(Cl)c(Cl)c1)NCCCCCN1CCC(NC(=O)c2cc(Cl)ccc2F)CC1` was tested. Which IC50 did it give?
A: 1160 nM

Q: Which IC50 does the source give for `CCCCCC(C)C(C)c1cc(O)c2c(c1)O[C@@]1(C(C)C)CC(O)[C@H](C)[C@@H]2C1` (some centres not stated) here?
A: 990 nM

Q: With `CCC(CC)CN1C(=O)C(C)(c2ccccc2)N=C1N` (configuration not stated) as the compound, how does the IC50 read?
A: 1060 nM

Q: `Cc1cc(NCCc2ccccc2)nc(NC(=NCC(=O)OC(C)(C)C)Nc2ccc(C(F)(F)F)cc2)n1` was tested. Which IC50 did it give?
A: 330 nM

Q: Which IC50 does the source give for `CC(=O)Nc1cccc(C(=O)Nc2ccc(-c3ccc(-c4nc5c(C)cccc5[nH]4)s3)cc2)c1` here?
A: 1740 nM

Q: With `CN(C)c1ccc(-c2csc(C(=O)NC3CCN(Cc4ccc(C(C)(C)C)cc4)C3)c2)cc1` (configuration not stated) as the compound, how does the IC50 read?
A: 950 nM

Q: `Cc1cc(N2CCC(N(C)C)C2)nc(Nc2ccc(Cl)cc2)n1` (configuration not stated) was tested. Which IC50 did it give?
A: 520 nM

Q: Which IC50 does the source give for `COc1ccc2nccc(N3CCN(CCNCc4ccc5c(n4)NC(=O)CS5)CC3)c2n1` here?
A: 840 nM

Q: For `COc1cc2nccc(Nc3ccc(NC(=O)c4ccc(C)cc4)c(O)c3)c2cc1OC`, which IC50 is on record?
A: 170 nM

Q: Which IC50 does the source give for `CC(C)(C)c1cc(/C=C/C(=O)NC2CCC(CN3CCC(c4c[nH]c5ccccc45)CC3)CC2)cc(C(C)(C)C)c1O` (configuration not stated) here?
A: 720 nM and 700 nM

Q: How did the IC50 turn out when `c1ccc(C2CCC(N3CCC(N4CCCC4)CC3)CC2)cc1` (configuration not stated) was run?
A: 670 nM

Q: How did the IC50 turn out when `N#Cc1cccc(/C=C/C(=O)NC2CCC(CCN3CCc4ccc(-c5cnccn5)cc4CC3)CC2)c1` (configuration not stated) was run?
A: 770 nM

Q: For `O=C(N[C@@H](Cc1ccccc1)C(=O)NC1CCCCC1)c1ccc(O)c(-c2cccc(C(F)(F)F)c2)c1`, which IC50 is on record?
A: 810 nM

Q: `COc1ccc(/C=C/C(=O)N2CCc3cc4nccc(N5CCN6CCC[C@H]6C5)c4cc32)cc1` was tested. Which IC50 did it give?
A: 640 nM

Q: For `Cc1nc(C)c(CC(=O)Nc2ccc(-c3cccc(-c4nc5ccc(C(F)(F)F)cc5[nH]4)c3)cc2)s1`, which IC50 is on record?
A: 920 nM

Q: How did the IC50 turn out when `COc1cc(OC)c(NC(=O)COc2ccc(C)cc2)cc1Cl` was run?
A: 690 nM

Q: With `COc1cccc(CNC(=O)[C@H]2CNCCN2C(=O)CCCc2ccccc2)c1` as the compound, how does the IC50 read?
A: 790 nM

Q: For `Fc1ccc(NC(=S)NN=Cc2ccccn2)cc1`, which IC50 is on record?
A: 770 nM

Q: `N=C(N)c1ccc(-c2cc(-c3cccc(C(=N)N)c3)on2)cc1` was tested. Which IC50 did it give?
A: 10 nM

Q: Which IC50 does the source give for `NC(CC1CC(=O)N1CC(=O)O)C(=O)O` (configuration not stated) here?
A: 160 nM

Q: For `Cc1[nH]c(C)c(-c2ccc(Cl)cc2)c(=O)c1I`, which IC50 is on record?
A: 670 nM
